pIC50: −log10 of the molar value.
Tests used:
Type in all cases: cell-based
recombinant CYP-21 = molecular target: T1, recombinant CYP-21 (Homo sapiens, UniProt P08686); test: Cyp21 assay: AD293 cells over-expressing recombinant CYP-21, 11-deoxycortisol formation from 17α-OH Progesterone by LC/MS
T1 construct: expressed in transfected cells; host or cells: AD293
T1 sequence (P08686 1-495): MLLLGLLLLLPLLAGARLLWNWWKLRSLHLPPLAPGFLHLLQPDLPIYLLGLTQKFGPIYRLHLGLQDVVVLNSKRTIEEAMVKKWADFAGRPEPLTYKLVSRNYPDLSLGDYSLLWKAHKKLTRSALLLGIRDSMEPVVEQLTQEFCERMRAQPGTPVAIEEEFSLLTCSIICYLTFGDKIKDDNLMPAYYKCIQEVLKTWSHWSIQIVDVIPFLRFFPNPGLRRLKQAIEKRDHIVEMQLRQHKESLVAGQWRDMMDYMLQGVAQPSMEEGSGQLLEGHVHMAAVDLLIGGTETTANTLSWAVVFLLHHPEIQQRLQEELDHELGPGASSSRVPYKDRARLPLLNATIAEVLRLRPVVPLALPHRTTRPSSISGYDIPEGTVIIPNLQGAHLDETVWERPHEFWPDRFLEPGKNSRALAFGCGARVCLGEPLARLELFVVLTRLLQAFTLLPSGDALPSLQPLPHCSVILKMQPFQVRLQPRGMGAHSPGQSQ
Protocol: Cyp21 assay protocol: AD293 cells that stably over-express recombinant CYP-21 were seeded in 96 well plates coated with poly D-lysine (10,000 cell per well) and incubated at 37° C. for 24 hours in Dulbecco's Modified Eagle Medium (DMEM) with Fetal Bovine Serum (FBS) that is stripped of hormones by charcoal treatment. The media is then removed, the cells are washed once with Phosphate buffer saline solution, and 50 μL Dulbecco's Modified Eagle Medium (DMEM) with Fetal Bovine Serum (FBS) that is stripped of hormones by charcoal treatment is added. Compounds of the disclosure are then added to the wells in eight concentration spanning 10 μM to 4.5 nM, and the plates are incubated for an additional 60 minutes at 37° C. 17α-OH Progesterone is then added (1.0 μM) and the plates are incubated for an additional 45 minutes at 37° C. After incubation, 50 uL of the supernatant (medium) is transferred into a fresh plate and 150 uL of an acetonitrile solution containing 200 ng/ml of Telmisartan is added. The sample is mixed and then placed in a centrifuge at 2000 rpm for 5 minutes. 100 uL of the supernatant is transferred into a fresh 96 well deep well plate, 100 uL of 1:1 methanol:water was added, the solution was mixed and then analyzed by LC/MS for the presence of 11-deoxycortisol using an Agilent 1200 RRLC/ABSCIEX API4000 LC-MS or Shimadzu Prominance/ABSCIEX API4000 LC-MS to determine IC5os of the compounds of the disclosure.

recombinant CYP-17 = molecular target: T2, recombinant CYP-17 (Homo sapiens, UniProt P05093); test: Cyp17 assay: AD293 cells over-expressing recombinant CYP-17, 3H-acetic acid release from [21-3H] 17α-hydroxyl-Pregnenolone
T2 construct: expressed in transfected cells; host or cells: AD293
T2 sequence (P05093 1-508): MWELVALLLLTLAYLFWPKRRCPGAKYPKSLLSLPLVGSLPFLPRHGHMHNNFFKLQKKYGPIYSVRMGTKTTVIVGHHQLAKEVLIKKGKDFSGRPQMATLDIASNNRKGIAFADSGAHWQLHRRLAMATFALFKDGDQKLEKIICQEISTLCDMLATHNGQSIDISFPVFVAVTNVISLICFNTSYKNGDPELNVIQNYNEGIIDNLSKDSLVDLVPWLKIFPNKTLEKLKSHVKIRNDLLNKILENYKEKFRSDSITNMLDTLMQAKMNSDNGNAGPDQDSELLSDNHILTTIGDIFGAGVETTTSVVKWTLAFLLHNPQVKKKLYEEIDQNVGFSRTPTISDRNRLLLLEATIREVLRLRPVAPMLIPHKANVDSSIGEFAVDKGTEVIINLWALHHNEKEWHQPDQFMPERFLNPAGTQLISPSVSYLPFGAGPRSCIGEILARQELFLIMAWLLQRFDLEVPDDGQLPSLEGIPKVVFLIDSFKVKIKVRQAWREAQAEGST
Protocol: Cyp17 assay protocol: AD293 cells that stably over-express recombinant CYP-17 were seeded in 96 well plates coated with poly D-lysine (15,000 cell per well) and incubated at 37° C. for 24 hours in Dulbecco's Modified Eagle Medium (DMEM) with Fetal Bovine Serum (FBS) that is stripped of hormones by charcoal treatment. The media is then removed, the cells are washed once with Phosphate buffer saline solution, and 50 μL Dulbecco's Modified Eagle Medium (DMEM) with Fetal Bovine Serum (FBS) that is stripped of hormones by charcoal treatment is added. Compounds of the disclosure are then added to the wells in eight concentration spanning 10 μM to 4.5 nM, and the plates are incubated for an additional 60 minutes at 37° C. [21-^3H] 17α-hydroxyl-Pregnenolone is then added (50 nCi per well, 31.25 nM) and the plates are incubated for an additional 4 hours at 37° C. The media is then collected, 200 μL, of chloroform is added, and the mixture is shaken for 1 hour. The aqueous layer is then separated and analyzed for the presence of ^3H-acetic acid using a Perkin Elmer Topcount NXT to determine IC50s of the compounds of the disclosure.

recombinant CYP-11 = molecular target: T3, recombinant CYP-11 (Homo sapiens, UniProt P15538); test: Cyp11 assay: AD293 cells over-expressing recombinant CYP-11, cortisol formation from 11-deoxycortisol by LC/MS
T3 construct: expressed in transfected cells; host or cells: AD293
T3 sequence (P15538 25-503): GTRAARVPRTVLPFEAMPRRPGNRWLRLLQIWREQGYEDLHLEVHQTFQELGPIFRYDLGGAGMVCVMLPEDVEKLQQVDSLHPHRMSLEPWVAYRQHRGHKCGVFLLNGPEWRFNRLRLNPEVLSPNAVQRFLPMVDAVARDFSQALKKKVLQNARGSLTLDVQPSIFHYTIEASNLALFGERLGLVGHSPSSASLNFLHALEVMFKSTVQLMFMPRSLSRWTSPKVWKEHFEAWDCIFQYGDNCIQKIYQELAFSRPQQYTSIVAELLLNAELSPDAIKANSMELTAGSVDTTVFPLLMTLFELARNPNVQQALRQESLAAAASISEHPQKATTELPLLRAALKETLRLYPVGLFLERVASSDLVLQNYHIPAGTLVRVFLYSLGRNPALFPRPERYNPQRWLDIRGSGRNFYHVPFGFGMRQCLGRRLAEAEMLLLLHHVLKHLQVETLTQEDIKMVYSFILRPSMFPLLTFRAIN
Protocol: Cyp11 assay protocol: AD293 cells that stably over-express recombinant CYP-11 were seeded in 96 well plates coated with poly D-lysine (15,000 cell per well) and incubated at 37° C. for 24 hours in Dulbecco's Modified Eagle Medium (DMEM) with Fetal Bovine Serum (FBS) that is stripped of hormones by charcoal treatment. The media is then removed, the cells are washed once with Phosphate buffer saline solution, and 50 μL Dulbecco's Modified Eagle Medium (DMEM) with Fetal Bovine Serum (FBS) that is stripped of hormones by charcoal treatment is added. Compounds of the disclosure are then added to the wells in eight concentration spanning 10 μM to 4.5 nM, and the plates are incubated for an additional 60 minutes at 37° C. 11-deoxycortisol is then added (2.0 μM) and the plates are incubated for an additional 12 hours at 37° C. After incubation, 50 uL of the supernatant (medium) is transferred into a fresh plate and 150 uL of an acetonitrile solution containing 200 ng/ml of Telmisartan is added. The sample is mixed and then placed in a centrifuge at 2000 rpm for 5 minutes. 100 uL of the supernatant is transferred into a fresh 96 well deep well plate, 100 uL of 1:1 methanol:water was added, the solution was mixed and then analyzed by LC/MS for the presence of cortisol using an Agilent 1200 RRLC/ABSCIEX API4000 LC-MS or Shimadzu Prominance/ABSCIEX API4000 LC-MS to determine IC5os of the compounds of the disclosure.

pIC50 (recombinant CYP-21) | pIC50 (recombinant CYP-17) | pIC50 (recombinant CYP-11) | SMILES
5.83 | 6.84 | 6.28 | CC(=O)N1CCN(c2ccc(CO[C@H]3CO[C@](Cn4ccnc4)(c4ccccc4Cl)OC3)cc2)CC1 [Example 500003]
 | ≤ 5.00 |  | CC(=O)N1CCN(c2ccc(CO[C@H]3CO[C@@](Cn4ccnc4)(c4ccccc4Cl)OC3)cc2)CC1 [Example 500004]
6.02 | 6.59 |  | Clc1ccccc1[C@]1(Cn2ccnc2)OC[C@@H](OCc2ccc(N3CCOCC3)cc2)CO1 [Example 500005]
5.32 | 5.10 |  | Clc1ccccc1[C@]1(Cn2ccnc2)OC[C@H](OCc2ccc(N3CCOCC3)cc2)CO1 [Example 500006]
5.82 | 7.92 | 7.00 | CS(=O)(=O)N1CCN(c2ccc(CO[C@H]3CO[C@](Cn4ccnc4)(c4ccccc4Cl)OC3)cc2)CC1 [Example 500012]
5.60 | 5.82 |  | CS(=O)(=O)N1CCN(c2ccc(CO[C@H]3CO[C@@](Cn4ccnc4)(c4ccccc4Cl)OC3)cc2)CC1 [Example 500013]
6.68 | 8.10 | 7.92 | CC(=O)N1CCN(c2ccc(CO[C@H]3CO[C@](Cn4ccnc4)(c4ccc(Cl)cc4Cl)OC3)cc2)CC1 [Example 500015]
6.38 | 7.12 | 7.43 | N#Cc1cccc(S(=O)(=O)N2CCN(c3ccc(CO[C@H]4CO[C@](Cn5ccnc5)(c5ccc(Cl)cc5Cl)OC4)cc3)CC2)c1 [Example 500016]
5.96 | 6.97 | 7.57 | O=S(=O)(CCCCl)N1CCN(c2ccc(CO[C@H]3CO[C@](Cn4ccnc4)(c4ccc(Cl)cc4Cl)OC3)cc2)CC1 [Example 500017]
6.58 | 7.96 | 8.22 | O=S(=O)(C1CC1)N1CCN(c2ccc(CO[C@H]3CO[C@](Cn4ccnc4)(c4ccc(Cl)cc4Cl)OC3)cc2)CC1 [Example 500018]
 | 5.96 | 7.92 | CC(=O)N1CCN(c2ccc(CO[C@H]3CO[C@@](Cn4ccnc4)(c4ccc(Cl)cc4Cl)OC3)cc2)CC1 [Example 500019]
6.96 | 7.96 | 7.60 | CC(C)S(=O)(=O)N1CCN(c2ccc(CO[C@H]3CO[C@](Cn4ccnc4)(c4ccc(Cl)cc4Cl)OC3)cc2)CC1 [Example 500020]
6.89 | 8.05 | 6.70 | CCS(=O)(=O)N1CCN(c2ccc(CO[C@H]3CO[C@](Cn4ccnc4)(c4ccc(Cl)cc4Cl)OC3)cc2)CC1 [Example 500021]
6.77 | 7.00 | 7.89 | O=S(=O)(c1cccc(OC(F)(F)F)c1)N1CCN(c2ccc(CO[C@H]3CO[C@](Cn4ccnc4)(c4ccc(Cl)cc4Cl)OC3)cc2)CC1 [Example 500022]
6.37 | 7.17 | 7.85 | O=S(=O)(c1c[nH]cn1)N1CCN(c2ccc(CO[C@H]3CO[C@](Cn4ccnc4)(c4ccc(Cl)cc4Cl)OC3)cc2)CC1 [Example 500023]
7.17 | 7.48 | 7.64 | Clc1ccc([C@]2(Cn3ccnc3)OC[C@@H](OCc3ccc(-c4ccncc4)cc3)CO2)c(Cl)c1 [Example 500024]
6.56 | 7.89 | 7.92 | O=S(=O)(c1cccnc1)N1CCN(c2ccc(CO[C@H]3CO[C@](Cn4ccnc4)(c4ccc(Cl)cc4Cl)OC3)cc2)CC1 [Example 500025]
6.10 | 5.60 |  | COCCOC(=O)N1CCN(c2ccc(CO[C@H]3CO[C@@](Cn4ccnc4)(c4ccccc4Cl)OC3)cc2)CC1 [Example 510012]
6.10 | 7.57 | 7.15 | CN(C)C(=O)N1CCN(c2ccc(CO[C@H]3CO[C@](Cn4ccnc4)(c4ccccc4Cl)OC3)cc2)CC1 [Example 510013]
6.24 | 7.70 | 6.85 | COCCOC(=O)N1CCN(c2ccc(CO[C@H]3CO[C@](Cn4ccnc4)(c4ccccc4Cl)OC3)cc2)CC1 [Example 510014]
6.41 | 7.38 | 6.36 | Clc1ccccc1[C@]1(Cn2ccnc2)OC[C@@H](OCc2ccc(-c3ccncc3)cc2)CO1 [Example 510017]
5.55 | 7.40 | 6.97 | CCOC(=O)CNC(=O)N1CCN(c2ccc(CO[C@H]3CO[C@](Cn4ccnc4)(c4ccccc4Cl)OC3)cc2)CC1 [Example 510018]
 | ≤ 5.00 | 5.24 | CCOC(=O)CNC(=O)N1CCN(c2ccc(CO[C@H]3CO[C@@](Cn4ccnc4)(c4ccccc4Cl)OC3)cc2)CC1 [Example 510019]

Source: US20160244436A1, “NOVEL FUNCTIONALIZED 5-(PHENOXYMETHYL)-1,3-DIOXANE ANALOGS EXHIBITING CYTOCHROME P450 INHIBITION AND THEIR METHOD OF USE” (CORTENDO AB (PUBL), priority 2013, published 2016)
